Drawing on ChEMBL document CHEMBL4616637, “Proximicins F and G and Diproximicin A: Aminofurans from the Marine-Derived Verrucosispora sp. SCSIO 40062 by Overexpression of PPtase Genes” (J Nat Prod, 2020), this text covers MIC, inhibition and IC50 for nine compounds.

Assay [1] has as its system Staphylococcus aureus. The assay is described as follows: Antibacterial activity against Staphylococcus aureus ATCC 29213 by CLSI based susceptibility test method. Type of assay: functional.
In assay [2] the test system is Staphylococcus aureus. The assay is described as follows: Antibacterial activity against methicillin-resistant Staphylococcus aureus shhsA1 by CLSI based susceptibility test method. It is filed as functional.
In the next assay the test system is Bacillus subtilis. The assay is described as follows: Antibacterial activity against Bacillus subtilis 1064 by CLSI based susceptibility test method. Type of assay: functional.
In a further assay the test system is Micrococcus luteus. The assay is described as follows: Antibacterial activity against Micrococcus luteus SCSIO ML01 by CLSI based susceptibility test method. It is filed as functional.
A further assay is filed under the species Homo sapiens. The assay is described as follows: Inhibition of alpha-glucosidase (unknown origin) at 20 uM using pNPG as substrate preincubated for 15 mins followed by substrate addition and measured after 15 mins.
Assay [3] concerns the target T1, Tyrosinase (Homo sapiens) (UniProt P14679).
T1 sequence (whole entry): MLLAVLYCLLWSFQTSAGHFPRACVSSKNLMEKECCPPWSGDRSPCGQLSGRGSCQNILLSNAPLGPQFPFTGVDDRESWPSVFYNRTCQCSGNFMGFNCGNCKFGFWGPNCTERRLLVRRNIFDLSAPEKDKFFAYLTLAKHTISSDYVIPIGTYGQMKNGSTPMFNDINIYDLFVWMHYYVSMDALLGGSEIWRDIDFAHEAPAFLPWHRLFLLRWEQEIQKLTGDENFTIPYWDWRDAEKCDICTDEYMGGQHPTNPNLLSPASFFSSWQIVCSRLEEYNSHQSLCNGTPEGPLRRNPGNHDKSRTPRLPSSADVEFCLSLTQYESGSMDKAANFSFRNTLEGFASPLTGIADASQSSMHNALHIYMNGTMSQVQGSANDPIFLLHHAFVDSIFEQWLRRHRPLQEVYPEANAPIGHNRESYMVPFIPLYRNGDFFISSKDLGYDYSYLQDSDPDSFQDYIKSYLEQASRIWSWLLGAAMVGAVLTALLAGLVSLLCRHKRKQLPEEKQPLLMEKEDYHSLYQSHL
The assay is described as follows: Inhibition of tyrosinase (unknown origin) at 20 uM using L-DOPA as substrate.

The target of assay [4] is Acetylcholinesterase (Electrophorus electricus) (UniProt O42275). The assay is described as follows: Inhibition of electric eel AChE at 20 uM using acetylthiocholine iodide as substrate incubated for 6 mins by Ellman's method.
Acetylcholinesterase (Electrophorus electricus), sequence (O42275 24-633 limits assumed): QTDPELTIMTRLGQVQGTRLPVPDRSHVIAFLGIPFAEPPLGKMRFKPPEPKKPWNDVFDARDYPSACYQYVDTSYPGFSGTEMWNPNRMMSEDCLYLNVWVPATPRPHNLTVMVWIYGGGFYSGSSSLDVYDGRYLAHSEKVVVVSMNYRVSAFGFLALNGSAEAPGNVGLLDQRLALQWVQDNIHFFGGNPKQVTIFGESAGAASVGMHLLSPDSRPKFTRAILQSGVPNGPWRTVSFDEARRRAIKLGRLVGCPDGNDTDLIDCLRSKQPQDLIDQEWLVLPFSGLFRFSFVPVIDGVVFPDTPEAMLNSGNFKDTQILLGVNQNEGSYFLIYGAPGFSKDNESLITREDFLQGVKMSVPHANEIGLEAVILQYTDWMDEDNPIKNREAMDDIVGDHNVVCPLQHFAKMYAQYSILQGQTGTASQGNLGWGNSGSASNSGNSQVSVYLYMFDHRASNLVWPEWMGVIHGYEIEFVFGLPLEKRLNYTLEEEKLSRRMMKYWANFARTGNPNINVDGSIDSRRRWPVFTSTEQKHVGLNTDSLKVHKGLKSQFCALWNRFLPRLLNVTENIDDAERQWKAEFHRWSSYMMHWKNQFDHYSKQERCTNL
The next assay has as its system SF-268. As to the kind of experiment: Cytotoxicity against human SF268 cells assessed as reduction in cell viability after 48 hrs by SRB assay. Type of assay: functional, cell-based. As to conditions: SF-268, 48 h. Background: Sulforhodamine B stains cellular protein and so reports cell mass.
For another assay, the system named is MCF7. As to the kind of experiment: Cytotoxicity against human MCF7 cells assessed as reduction in cell viability after 48 hrs by SRB assay. It is filed as functional, cell-based. The conditions noted are these: MCF7, 48 h.
The next assay concerns HepG2. The assay is described as follows: Cytotoxicity against human HepG2 cells assessed as reduction in cell viability after 48 hrs by SRB assay. Type of assay: functional, cell-based. The conditions noted are these: HepG2, 48 h.
Another assay has as its system A549. The assay is described as follows: Cytotoxicity against human A549 cells assessed as reduction in cell viability after 48 hrs by SRB assay. It is filed as functional, cell-based. As to conditions: A549, 48 h.

Converted amounts (≈) assume the structure as drawn. The source made the active and inactive calls. No cut-off for these calls is given here.

Consider `CNC(=O)c1cc(NC(=O)c2cc(NC(=O)OC)co2)co1`, for which the MIC against Staphylococcus aureus [1], against Staphylococcus aureus [2], against Bacillus subtilis and in the assay with Micrococcus luteus was over 64 µg/mL in each case. Also, the inhibition result (in the assay listed under Homo sapiens; in assay [3]; in [4]) was “inactive” throughout. The IC50 in the assay on SF-268, in the assay with MCF7, in the assay with HepG2 and in the assay on A549 was over 10 µM in each case.

`COC(=O)Nc1coc(C(=O)Nc2coc(C(=O)NCCCCCNC(=O)c3cc(NC(=O)c4cc(NC(=O)OC)co4)co3)c2)c1`: the MIC with Staphylococcus aureus [1], with Staphylococcus aureus [2], against Bacillus subtilis and against Micrococcus luteus was over 64 µg/mL in each case. Further, the inhibition entry (in the assay listed under Homo sapiens; in [3]; in [4]) was “inactive” each time. Moreover, the IC50 in the assay on SF-268, in the assay on MCF7, with HepG2 and in the assay on A549 was over 10 µM throughout.

On to `COC(=O)Nc1coc(C(=O)Nc2coc(C(=O)NCCc3ccccc3)c2)c1`, for which the MIC – broadly, the least concentration at which growth counts as inhibited – was over 64 µg/mL against Staphylococcus aureus [1], over 64 µg/mL against Staphylococcus aureus [2], 32 µg/mL (≈ 80.5 µM) with Bacillus subtilis and over 64 µg/mL in the assay on Micrococcus luteus. Also, the inhibition result (in the assay listed under Homo sapiens; in assay [3]; in assay [4]) was “inactive” throughout.

As to `CC1(C)S[C@@H]2[C@H](NC(=O)[C@H](N)c3ccccc3)C(=O)N2[C@H]1C(=O)O` [AMPICILLIN], the minimal inhibitory concentration (MIC) with Staphylococcus aureus [1] was 0.25 µg/mL (≈ 0.715 µM); in the assay with Staphylococcus aureus [2], over 64 µg/mL; with Bacillus subtilis it was 0.25 µg/mL (≈ 0.715 µM); against Micrococcus luteus, 0.5 µg/mL (≈ 1.43 µM).

Take `C[S+](C)[O-]` [DIMETHYL SULFOXIDE]: the MIC in the assay with Staphylococcus aureus [1], in the assay on Staphylococcus aureus [2], against Bacillus subtilis and against Micrococcus luteus was over 64 µg/mL each time.

With `COC(=O)Nc1coc(C(=O)Nc2coc(C(=O)NCCc3ccc(O)cc3)c2)c1` [PROXIMICIN B], the MIC is 16 µg/mL (≈ 38.7 µM) against Staphylococcus aureus [1], 16 µg/mL (≈ 38.7 µM) against Staphylococcus aureus [2], 8 µg/mL (≈ 19.4 µM) with Bacillus subtilis and over 64 µg/mL in the assay on Micrococcus luteus. Moreover, the inhibition entry (in the assay filed under Homo sapiens; in [3]; in assay [4]) was “inactive” throughout. In addition, the IC50 in the assay on SF-268, in the assay on MCF7, with HepG2 and with A549 was over 10 µM each time.

For the compound `COC(=O)Nc1coc(C(=O)Nc2coc(C(=O)NCCc3c[nH]c4ccccc34)c2)c1` [PROXIMICIN C], the MIC against Staphylococcus aureus [1], against Staphylococcus aureus [2], against Bacillus subtilis and with Micrococcus luteus was over 64 µg/mL in each case. Besides, the inhibition result (in the assay listed under Homo sapiens; in assay [3]; in assay [4]) was “inactive” in each case. Also, the half-inhibitory concentration (IC50) in the assay with SF-268, with MCF7, in the assay on HepG2 and in the assay with A549 was over 10 µM in each case.

With `COc1cc(Cc2cnc(N)nc2N)cc(OC)c1OC` [TRIMETHOPRIM], the minimum inhibitory concentration (MIC) in the assay on Staphylococcus aureus [1] is 2 µg/mL (≈ 6.89 µM); against Staphylococcus aureus [2], over 64 µg/mL; in the assay on Bacillus subtilis, 0.25 µg/mL (≈ 0.861 µM); with Micrococcus luteus, 2 µg/mL (≈ 6.89 µM).

Take `CN[C@H](CC(C)C)C(=O)N[C@H]1C(=O)N[C@@H](CC(N)=O)C(=O)N[C@H]2C(=O)N[C@H]3C(=O)N[C@H](C(=O)N[C@H](C(=O)O)c4cc(O)cc(O)c4-c4cc3ccc4O)[C@H](O)c3ccc(c(Cl)c3)Oc3cc2cc(c3O[C@@H]2O[C@H](CO)[C@@H](O)[C@H](O)[C@H]2O[C@H]2C[C@](C)(N)[C@H](O)[C@H](C)O2)Oc2ccc(cc2Cl)[C@H]1O` [VANCOMYCIN]: the values for the MIC in the assay on Bacillus subtilis and in the assay with Micrococcus luteus were 0.5 µg/mL (≈ 0.345 µM) and 0.25 µg/mL (≈ 0.173 µM), respectively.
